Assay results: the supplement of paper PMC13380429

Key:
Calu-3 [1] = experiment: cell viability relative to DMSO; higher = less toxic; details: 72 h
Vero E6 [2] = experiment: as above; details: 72 h
U2OS [3] = experiment: as above; details: 72 h
Caco-2 [4] = experiment: as above; details: 72 h
HepG2 [5] = experiment: as above; details: 72 h
A549-ACE2 [6] = experiment: drug-induced phospholipidosis relative to tamoxifen; higher = more phospholipidosis
[7] = tested on: A549-ACE2 infected with SARS-CoV-2; experiment: cell count relative to DMSO; higher = less toxic; details: 24 h
Calu-3 [8] = experiment: drug sensitivity score (DSS) for viability; higher = more toxic; extreme values may be limits of the assay; details: 72 h
Vero E6 [9] = experiment: as above; details: 72 h
U2OS [10] = experiment: as above; details: 72 h
Caco-2 [11] = experiment: as above; details: 72 h
HepG2 [12] = experiment: as above; details: 72 h
Calu-3 [13] = experiment: relative viability EC50 (midpoint between 100% and the lowest measured viability); higher = less toxic; details: 72 h
Vero E6 [14] = experiment: as above; details: 72 h
U2OS [15] = experiment: as above; details: 72 h
Caco-2 [16] = experiment: as above; details: 72 h
HepG2 [17] = experiment: as above; details: 72 h
[18] = tested on: A549-ACE2 infected with SARS-CoV-2; experiment: SARS-CoV-2 infection rate relative to DMSO; higher = more infection; details: 24 h
[19] = tested on: A549-ACE2 infected with SARS-CoV-2; experiment: morphology score (similarity to uninfected cells); higher = more like uninfected cells; details: 24 h
A549-ACE2 [20] = experiment: phospholipidosis EC50; higher = less potent phospholipidosis inducer

COc1cc(NC(C)CCCN)c2ncccc2c1 (stereo not drawn) [primaquine]
Details | SARS-CoV-2 infection rate, [18] [%] | cell count, [7] [%] | cell viability, Caco-2 [4] [%] | cell viability, Calu-3 [1] [%] | cell viability, HepG2 [5] [%] | cell viability, U2OS [3] [%] | cell viability, Vero E6 [2] [%] | morphology score, [19]
1 nM | – | – | 103 | 104 | 122 | 103 | 108 | –
10 nM | – | – | 108 | 90.7 | 107 | 102 | 105 | –
100 nM | – | – | 91.8 | 106 | 108 | 102 | 99.7 | –
0.3 µM | 97 | 102 | – | – | – | – | – | -0.01
1000 nM | – | – | 93.9 | 100 | 110 | 101 | 102 | –
10000 nM | – | – | 45.2 | 76.9 | 80.3 | 88.9 | 89.9 | –

A549-ACE2 [6], 0.3 µM
Details | drug-induced phospholipidosis [%]
24 h | 2.39
48 h | 2.15
72 h | 2.76

Details | drug sensitivity score | relative viability EC50 [µM]
Caco-2 [11] | 4 | –
Caco-2 [16] | – | 2.25
Calu-3 [8] | 0.8 | –
Calu-3 [13] | – | > 10
HepG2 [12] | 0.3 | –
HepG2 [17] | – | > 10
U2OS [10] | 0 | –
U2OS [15] | – | > 10
Vero E6 [9] | 0 | –
Vero E6 [14] | – | > 10

COc1ccccc1C1(O)CCN(CCCn2c3ccccc3c3ccccc32)CC1 [NNC-05-2090]
Details | SARS-CoV-2 infection rate [%] | cell count [%] | cell viability [%] | morphology score | phospholipidosis EC50 [µM]
A549-ACE2 [20], 24 h | – | – | – | – | 1.98
A549-ACE2 [20], 48 h | – | – | – | – | 3.85
A549-ACE2 [20], 72 h | – | – | – | – | 4.18
Caco-2 [4], 1 nM | – | – | 97.4 | – | –
Caco-2 [4], 10 nM | – | – | 91.7 | – | –
Caco-2 [4], 100 nM | – | – | 109 | – | –
Caco-2 [4], 1000 nM | – | – | 83.1 | – | –
Caco-2 [4], 10000 nM | – | – | 68.4 | – | –
Calu-3 [1], 1 nM | – | – | 94.1 | – | –
Calu-3 [1], 10 nM | – | – | 99.9 | – | –
Calu-3 [1], 100 nM | – | – | 90.7 | – | –
Calu-3 [1], 1000 nM | – | – | 89.1 | – | –
Calu-3 [1], 10000 nM | – | – | 7.5 | – | –
HepG2 [5], 1 nM | – | – | 94.9 | – | –
HepG2 [5], 10 nM | – | – | 99.7 | – | –
HepG2 [5], 100 nM | – | – | 90.4 | – | –
HepG2 [5], 1000 nM | – | – | 99.9 | – | –
HepG2 [5], 10000 nM | – | – | 40.8 | – | –
U2OS [3], 1 nM | – | – | 99.4 | – | –
U2OS [3], 10 nM | – | – | 94.1 | – | –
U2OS [3], 100 nM | – | – | 102 | – | –
U2OS [3], 1000 nM | – | – | 94.6 | – | –
U2OS [3], 10000 nM | – | – | 82.9 | – | –
Vero E6 [2], 1 nM | – | – | 90.9 | – | –
Vero E6 [2], 10 nM | – | – | 97.5 | – | –
Vero E6 [2], 100 nM | – | – | 88.1 | – | –
Vero E6 [2], 1000 nM | – | – | 92.1 | – | –
Vero E6 [2], 10000 nM | – | – | 74.5 | – | –
[7], 0.1 µM | – | 98 | – | – | –
[7], 0.3 µM | – | 106 | – | – | –
[7], 1 µM | – | 109 | – | – | –
[7], 3 µM | – | 119 | – | – | –
[18], 0.1 µM | 98 | – | – | – | –
[18], 0.3 µM | 98 | – | – | – | –
[18], 1 µM | 86 | – | – | – | –
[18], 3 µM | 34 | – | – | – | –
[19], 0.1 µM | – | – | – | 0.12 | –
[19], 0.3 µM | – | – | – | 0.04 | –
[19], 1 µM | – | – | – | 0.29 | –
[19], 3 µM | – | – | – | 0.85 | –

drug-induced phospholipidosis [%], A549-ACE2 [6]
Details | 0.3 µM | 0.833333 µM | 3.33333 µM | 6.66667 µM | 10 µM
24 h | 3.96 | 10.5 | 87.6 | 108 | 101
48 h | 4.69 | 12.2 | 64.2 | 102 | 116
72 h | 5.37 | 9.7 | 49.7 | 106 | 121

Details | drug sensitivity score | relative viability EC50 [µM]
Caco-2 [11] | 3.4 | –
Calu-3 [8] | 7 | –
Calu-3 [13] | – | 2.19
HepG2 [12] | 3.2 | –
HepG2 [17] | – | 3.14
U2OS [10] | 0.9 | –
U2OS [15] | – | > 10
Vero E6 [9] | 1.9 | –

c1ccc(-c2ccc(C(c3ccccc3)n3ccnc3)cc2)cc1 (stereo not drawn) [bifonazole]
Details | SARS-CoV-2 infection rate, [18] [%] | cell count, [7] [%] | cell viability, Caco-2 [4] [%] | cell viability, Calu-3 [1] [%] | cell viability, HepG2 [5] [%] | cell viability, U2OS [3] [%] | cell viability, Vero E6 [2] [%] | morphology score, [19]
1 nM | – | – | 98 | 98.4 | 98.2 | 96.9 | 85.9 | –
10 nM | – | – | 99.7 | 95 | 97.1 | 95.9 | 91.2 | –
100 nM | – | – | 96.1 | 106 | 91.8 | 97.2 | 86.5 | –
0.3 µM | 91 | 99 | – | – | – | – | – | 0.26
1000 nM | – | – | 94.9 | 97.1 | 98.6 | 95.2 | 91.5 | –
3 µM | 103 | 112 | – | – | – | – | – | -0.04
10000 nM | – | – | 78.7 | 99.1 | 93.6 | 94.7 | 100 | –
10 µM | 106 | 111 | – | – | – | – | – | 0.19
30 µM | 89 | 102 | – | – | – | – | – | 0.57

drug-induced phospholipidosis [%], A549-ACE2 [6]
Details | 0.3 µM | 0.833333 µM | 3.33333 µM | 6.66667 µM | 10 µM | 30 µM
24 h | -0.45 | -9.45 | -4.39 | 3.56 | 6 | 40.1
48 h | 3.19 | -4.19 | 2.93 | 5.02 | 14.4 | 44.7
72 h | 2.27 | -1.31 | 4.12 | 5.49 | 19.7 | –

Details | drug sensitivity score | relative viability EC50 [µM]
Caco-2 [11] | 1.2 | –
Caco-2 [16] | – | > 10
Calu-3 [8] | 0 | –
Calu-3 [13] | – | > 10
HepG2 [12] | 0 | –
HepG2 [17] | – | > 10
U2OS [10] | 0 | –
U2OS [15] | – | > 10
Vero E6 [9] | 0 | –
Vero E6 [14] | – | > 10
